biological target: T1, human PPARgamma (Homo sapiens, UniProt P37231); assay: Cellular PPARgamma assay (transiently transfected HEK cells, luciferase reporter); type: cell-based; conditions: HEK cells transiently transfected with GAL4-humanPPARgammaLBD
T1 construct: amino acids I152-Y475; expressed in transfected cells; host or cells: HEK cells, transiently transfected (pcDNA3-GAL4-humanPPARgammaLBD)
T1 sequence (P37231 182-477 isoform P37231-2 limits assumed): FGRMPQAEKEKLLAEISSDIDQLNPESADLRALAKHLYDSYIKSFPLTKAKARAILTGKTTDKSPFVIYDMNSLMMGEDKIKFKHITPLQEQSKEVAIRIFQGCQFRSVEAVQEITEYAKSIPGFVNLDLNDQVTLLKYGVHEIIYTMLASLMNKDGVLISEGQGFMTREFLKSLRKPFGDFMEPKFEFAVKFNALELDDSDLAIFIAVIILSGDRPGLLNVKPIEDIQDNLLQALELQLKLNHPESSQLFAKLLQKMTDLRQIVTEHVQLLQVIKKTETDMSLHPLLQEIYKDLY
Description: A transient transfection system is employed to determine the cellular PPARgamma activity of PPAR agonists. It is based on the use of a luciferase reporter plasmid (pGL3basic-5xGAL4-TK) and of a PPARgamma expression plasmid (pcDNA3-GAL4-humanPPARgammaLBD). Both plasmids are transiently transfected into human embryonic kidney cells (HEK cells). There is then expression in these cells of the fusion protein GAL4-humanPPARgammaLBD which binds to the GAL4 binding sites of the reporter plasmid. In the presence of a PPARgamma-active ligand, the activated fusion protein GAL4-humanPPARgammaLBD induces expression of the luciferase reporter gene, which can be detected in the form of a chemiluminescence signal after addition of a luciferase substrate. As a difference from the stably transfected PPARalpha reporter cell line, in the cellular PPARgamma assay the two components (luciferase reporter plasmid and PPARgamma expression plasmid) are transiently transfected into HEK cells because stable and permanent expression of the PPARgamma fusion protein is cytotoxic.
The luciferase reporter plasmid pGL3basic-5xGAL4-TK is based on the vector pGL3basic from Promega. The reporter plasmid is prepared by cloning five binding sites of the yeast transcription factor GAL4 (each binding site with the sequence 5′-CTCGGAGGACAGTACTCCG-3′), together with a 160 bp-long thymidine kinase promoter section (Genbank Accession #AF027128) 5′-upstream into pGL3basic. 3′-downstream of the thymidine kinase promoter is the complete luciferase gene from Photinus pyralis (Genbank Accession #M15077) which is already a constituent of the plasmid pGL3basic used. The cloning and sequencing of the reporter plasmid pGL3basic-5xGAL4-TK took place in analogy to the description in Sambrook J. et. al. (Molecular cloning, Cold Spring Harbor Laboratory Press, 1989).
The PPARgamma expression plasmid pcDNA3-GAL4-humanPPARgammaLBD was prepared by first cloning the cDNA coding for amino acids 1-147 of the yeast transcription factor GAL4 (Genbank Accession #P04386) into the plasmid pcDNA3 (from Invitrogen) 3′-downstream of the cytomegalovirus promoter. Subsequently, the cDNA of the ligand-binding domain (LBD) of the human PPARgamma receptor (amino acids I152-Y475; Accession #g1480099) 3′-downstream of the GAL4 DNA binding domain. Cloning and sequencing of the PPARgamma expression plasmid pcDNA3-GAL4-humanPPARgammaLBD again took place in analogy to the description in Sambrook J. et. al. (Molecular cloning, Cold Spring Harbor Laboratory Press, 1989). Besides the luciferase reporter plasmid pGL3basic-5xGAL4-TK and the PPARgamma expression plasmid pcDNA3-GAL4-humanPPARgammaLBD, also used for the cellular PPARgamma assay are the reference plasmid pRL-CMV (from Promega) and the plasmid pBluescript SK(+) from Stratagene. All four plasmids were prepared using a plasmid preparation kit from Qiagen, which ensured a plasmid quality with a minimal endotoxin content, before transfection into HEK cells.
The activity of PPARgamma agonists is determined in a 4-day assay which is described below. Before the transfection, HEK cells are cultivated in DMEM (#41965-039, Invitrogen) which is mixed with the following additions: 10% FCS (#16000-044, Invitrogen), 1% penicillin-streptomycin solution (#15140-122, Invitrogen) and 2 mM L-glutamine (#25030-024, Invitrogen).
Firstly, solution A, a transfection mixture which contains all four plasmids previously described in addition to DMEM, is prepared. The following amounts are used to make up 3 ml of solution A for each 96 well microtiter plate for an assay: 2622 μl of antibiotic- and serum-free DMEM (#41965-039, Invitrogen), 100 μl of reference plasmid pRL-CMV (1 ng/μl), 100 μl of luciferase reporter plasmid pGL3basic-5xGAL4-TK (10 ng/μl), 100 μl of PPARgamma expression plasmid pcDNA3-GAL4-humanPPARgammaLBD (100 ng/μl) and 78 μl of plasmid pBluescript SK(+) (500 ng/μl). […]

Row | Compound | EC50 [µM]
1 | CCOc1cc(C(F)(F)F)ccc1C(=O)NC1Cc2ccc(S(=O)(=O)Nc3nnc(C(C)C)s3)cc2C1 (racemic) [Example 1, 2-Ethoxy-N-[5-(5-isopropyl-[1,3,4]thiadiazol-2-ylsulfamoyl)-indan-2-yl]-4-trifluoromethyl-benzamide] | 0.001
2 | CCOc1cc(C(F)(F)F)ccc1C(=O)N[C@H]1CCc2ccc(S(=O)(=O)Nc3nnc(C(C)C)s3)cc2C1 [Example 5, 2-Ethoxy-N-[(S)-7-(5-isopropyl-[1,3,4]thiadiazol-2-ylsulfamoyl)-1,2,3,4-tetrahydro-naphthalen-2-yl]-4-trifluoromethyl-benzamide] | 0.1
3 | CCOc1cc(C(F)(F)F)ccc1C(=O)N[C@@H]1CCc2ccc(S(=O)(=O)Nc3nnc(C(C)C)s3)cc2C1 [Example 6, 2-Ethoxi-N-[(R)-7-(5-isopropyl-[1,3,4]thiadiazol-2-ylsulfamoyl)-1,2,3,4-tetrahydro-naphthalene-2-yl]-4-trifluoromethyl-benzamide] | 0.2
4 | CCOc1cc(C(F)(F)F)sc1C(=O)NC1Cc2ccc(S(=O)(=O)Nc3nnc(C(C)C)s3)cc2C1 (stereo not drawn) [Example 11, 3-Ethoxy-5-trifluoromethyl-thiophene-2-carboxylic acid [5-(5-isopropyl-[1,3,4]thiadiazol-2-ylsulfamoyl)-indan-2-yl]-amide] | > 10

Other lines, results leading:

Row | EC50 [µM] | Compound
5 | 0.022 | CCOc1cc(C(F)(F)F)ccc1C(=O)NC1Cc2ccc(S(=O)(=O)Nc3nnc(C(C)C)s3)cc2C1 (single isomer, unassigned; enantiomer 1) [Example 1.1, 2-Ethoxy-N-[5-(5-isopropyl-[1,3,4]thiadiazol-2-ylsulfamoyl)-indan-2-yl]-4-trifluoromethyl-benzamide (Enantiomer 1)]
6 | > 10 | CCOc1cc(C(F)(F)F)ccc1C(=O)NC1Cc2ccc(S(=O)(=O)Nc3nnc(C(C)C)s3)cc2C1 (single isomer, unassigned; enantiomer 2) [Example 1.2, 2-Ethoxy-N-[5-(5-isopropyl-[1,3,4]thiadiazol-2-ylsulfamoyl)-indan-2-yl]-4-trifluoromethyl-benzamide (Enantiomer 2)]
